# Results reported in US8871753B2, “Macrocyclic compounds and their use as kinase inhibitors” (Incyte Corporation, priority 2008, dated 2014).
# Counter-ions that a name gives are not always drawn. Like-named read-outs stand apart in the source and are kept apart here.
# Tests used:
# Type in all cases: biochemical
# [1] = target: T1, human JAK1 (a.a. 837-1142) (Homo sapiens, UniProt P23458); test: In vitro JAK kinase assay (HTRF, phosphorylation of a biotinylated peptide), JAK1; settings: read-out: JAK1 IC50
# T1 construct: human JAK1 (a.a. 837-1142); His tag (N); made in house; host or cells: insect cells (baculovirus)
# T1 sequence (P23458 849-1154): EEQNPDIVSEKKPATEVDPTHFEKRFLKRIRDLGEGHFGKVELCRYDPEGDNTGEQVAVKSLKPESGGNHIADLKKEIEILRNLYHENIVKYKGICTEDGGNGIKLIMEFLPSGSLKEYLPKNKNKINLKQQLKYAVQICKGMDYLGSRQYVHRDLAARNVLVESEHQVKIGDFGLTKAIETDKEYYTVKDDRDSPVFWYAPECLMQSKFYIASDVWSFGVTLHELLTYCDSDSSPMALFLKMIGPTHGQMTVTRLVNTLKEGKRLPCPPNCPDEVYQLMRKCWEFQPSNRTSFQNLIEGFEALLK
# In short: (§1)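 Kinase activity was measured as phosphorylation of a biotinylated peptide, with ATP at 90 μM for JAK1, 30 μM for JAK2 and 3 μM for JAK3. Reactions ran 1 hr at room temperature, were stopped with EDTA plus SA-APC and Eu-Py20, and were read by HTRF after 40 minutes of antibody binding.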
# [2] = target: T2, human JAK2 (a.a. 828-1132) (Homo sapiens, UniProt O60674); test: In vitro JAK kinase assay (HTRF, phosphorylation of a biotinylated peptide), JAK2
# T2 construct: JAK2 (a.a. 828-1132); His tag (N); made in house; host or cells: insect cells (baculovirus)
# T2 sequence (O60674 828-1132): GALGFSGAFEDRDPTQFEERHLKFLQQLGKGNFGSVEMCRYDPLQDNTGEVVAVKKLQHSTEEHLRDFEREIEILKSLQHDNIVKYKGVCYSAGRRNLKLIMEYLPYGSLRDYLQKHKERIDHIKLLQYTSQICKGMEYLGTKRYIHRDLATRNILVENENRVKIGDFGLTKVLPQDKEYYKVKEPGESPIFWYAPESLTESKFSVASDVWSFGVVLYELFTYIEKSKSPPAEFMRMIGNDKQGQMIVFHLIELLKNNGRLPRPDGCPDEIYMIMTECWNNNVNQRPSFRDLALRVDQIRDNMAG
# In short: as §1
# [3] = target: T3, human JAK3 (a.a. 781-1124) (Homo sapiens, UniProt P52333); test: In vitro JAK kinase assay (HTRF, phosphorylation of a biotinylated peptide), JAK3
# T3 construct: JAK3 (a.a. 781-1124); His tag (N); made in house; host or cells: insect cells (baculovirus)
# T3 sequence (P52333 781-1124): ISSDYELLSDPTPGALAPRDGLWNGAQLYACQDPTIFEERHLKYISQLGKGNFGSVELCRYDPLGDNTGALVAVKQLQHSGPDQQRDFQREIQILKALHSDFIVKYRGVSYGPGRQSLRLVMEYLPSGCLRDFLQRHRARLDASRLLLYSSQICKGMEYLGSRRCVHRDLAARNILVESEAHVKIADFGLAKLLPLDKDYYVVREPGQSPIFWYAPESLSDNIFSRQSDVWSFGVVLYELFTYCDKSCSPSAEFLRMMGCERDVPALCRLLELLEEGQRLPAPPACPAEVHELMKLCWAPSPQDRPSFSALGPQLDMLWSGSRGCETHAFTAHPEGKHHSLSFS
# In short: as §1
# TYK2 = TYK2 (Homo sapiens, UniProt P29597); test: TYK2 kinase inhibition (Table A1)
# TYK2, sequence (P29597 whole entry): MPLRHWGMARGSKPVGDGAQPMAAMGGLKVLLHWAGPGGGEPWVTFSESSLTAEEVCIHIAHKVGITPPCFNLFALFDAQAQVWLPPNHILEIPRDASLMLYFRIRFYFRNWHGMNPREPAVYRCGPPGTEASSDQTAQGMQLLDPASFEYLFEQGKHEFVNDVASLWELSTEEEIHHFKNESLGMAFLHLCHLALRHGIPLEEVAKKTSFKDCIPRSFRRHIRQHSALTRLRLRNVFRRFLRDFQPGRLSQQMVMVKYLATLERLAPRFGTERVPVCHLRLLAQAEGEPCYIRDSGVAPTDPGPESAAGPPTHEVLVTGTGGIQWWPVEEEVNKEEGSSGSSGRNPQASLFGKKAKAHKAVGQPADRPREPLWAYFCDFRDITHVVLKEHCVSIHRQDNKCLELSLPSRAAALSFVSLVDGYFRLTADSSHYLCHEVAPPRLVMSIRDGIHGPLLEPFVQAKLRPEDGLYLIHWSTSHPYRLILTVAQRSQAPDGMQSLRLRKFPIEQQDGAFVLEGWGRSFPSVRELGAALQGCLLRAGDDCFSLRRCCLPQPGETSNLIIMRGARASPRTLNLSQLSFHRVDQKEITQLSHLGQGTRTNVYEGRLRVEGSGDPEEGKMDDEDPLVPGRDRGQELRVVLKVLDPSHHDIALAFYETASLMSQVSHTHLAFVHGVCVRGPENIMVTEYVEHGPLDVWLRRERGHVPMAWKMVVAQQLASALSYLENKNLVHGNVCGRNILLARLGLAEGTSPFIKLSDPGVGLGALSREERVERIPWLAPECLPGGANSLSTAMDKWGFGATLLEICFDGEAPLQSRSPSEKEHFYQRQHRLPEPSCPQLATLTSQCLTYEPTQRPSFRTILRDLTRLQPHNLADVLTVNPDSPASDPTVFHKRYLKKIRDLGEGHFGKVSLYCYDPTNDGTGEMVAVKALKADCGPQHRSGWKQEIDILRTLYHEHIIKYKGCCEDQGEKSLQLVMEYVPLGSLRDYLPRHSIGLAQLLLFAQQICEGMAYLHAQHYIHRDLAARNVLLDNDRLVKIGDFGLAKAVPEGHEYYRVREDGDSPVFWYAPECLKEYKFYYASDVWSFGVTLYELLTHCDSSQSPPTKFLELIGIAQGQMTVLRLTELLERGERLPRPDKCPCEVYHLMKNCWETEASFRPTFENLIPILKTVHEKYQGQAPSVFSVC
# [4] = target: T4, Recombinant Human Anaplastic Lymphoma Kinase (Homo sapiens, UniProt Q9UM73); test: ALK HTRF kinase assay
# T4 construct: purchased Invitrogen, Carlsbad, Calif
# T4 sequence (Q9UM73 19-1620): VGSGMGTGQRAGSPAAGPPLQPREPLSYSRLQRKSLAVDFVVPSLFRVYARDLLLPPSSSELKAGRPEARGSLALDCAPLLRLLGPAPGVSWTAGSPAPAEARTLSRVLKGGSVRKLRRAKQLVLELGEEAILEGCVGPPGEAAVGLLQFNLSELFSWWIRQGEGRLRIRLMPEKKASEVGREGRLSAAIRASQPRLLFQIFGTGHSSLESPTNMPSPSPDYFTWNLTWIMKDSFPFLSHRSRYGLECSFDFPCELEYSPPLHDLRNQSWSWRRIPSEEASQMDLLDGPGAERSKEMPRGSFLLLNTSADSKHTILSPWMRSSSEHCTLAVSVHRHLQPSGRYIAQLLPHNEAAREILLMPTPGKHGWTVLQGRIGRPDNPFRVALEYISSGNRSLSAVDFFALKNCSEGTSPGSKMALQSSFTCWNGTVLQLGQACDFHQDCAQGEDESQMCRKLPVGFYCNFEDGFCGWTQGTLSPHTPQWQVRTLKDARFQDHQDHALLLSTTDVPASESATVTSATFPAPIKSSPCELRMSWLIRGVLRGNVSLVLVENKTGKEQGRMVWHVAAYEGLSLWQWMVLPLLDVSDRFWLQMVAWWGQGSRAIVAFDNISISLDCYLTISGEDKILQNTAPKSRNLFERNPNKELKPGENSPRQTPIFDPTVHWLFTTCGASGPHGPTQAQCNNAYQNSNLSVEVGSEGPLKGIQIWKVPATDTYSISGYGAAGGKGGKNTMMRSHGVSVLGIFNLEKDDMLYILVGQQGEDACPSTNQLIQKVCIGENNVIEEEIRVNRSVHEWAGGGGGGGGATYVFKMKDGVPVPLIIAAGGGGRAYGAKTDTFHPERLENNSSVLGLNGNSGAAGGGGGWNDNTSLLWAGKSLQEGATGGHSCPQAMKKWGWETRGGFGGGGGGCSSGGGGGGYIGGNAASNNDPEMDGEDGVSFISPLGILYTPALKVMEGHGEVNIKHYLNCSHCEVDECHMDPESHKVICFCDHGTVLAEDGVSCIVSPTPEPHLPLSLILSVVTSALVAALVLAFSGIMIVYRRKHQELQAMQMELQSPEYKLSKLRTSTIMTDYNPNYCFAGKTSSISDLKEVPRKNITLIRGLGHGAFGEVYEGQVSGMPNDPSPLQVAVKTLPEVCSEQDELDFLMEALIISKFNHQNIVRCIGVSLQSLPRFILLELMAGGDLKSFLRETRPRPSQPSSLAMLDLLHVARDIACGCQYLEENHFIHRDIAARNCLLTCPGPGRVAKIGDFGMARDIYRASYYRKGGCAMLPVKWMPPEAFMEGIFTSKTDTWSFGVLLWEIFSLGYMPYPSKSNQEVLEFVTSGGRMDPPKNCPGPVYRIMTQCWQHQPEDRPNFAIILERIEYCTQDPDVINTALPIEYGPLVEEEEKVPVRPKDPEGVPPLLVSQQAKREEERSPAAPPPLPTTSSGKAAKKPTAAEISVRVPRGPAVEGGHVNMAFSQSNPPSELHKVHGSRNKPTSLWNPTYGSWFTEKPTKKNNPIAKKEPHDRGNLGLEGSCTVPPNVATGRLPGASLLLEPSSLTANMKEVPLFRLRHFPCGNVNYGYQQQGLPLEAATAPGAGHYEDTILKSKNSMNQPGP
# In short: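 Recombinant human ALK phosphorylated a biotinylated synthetic peptide. Phosphotyrosine was detected by TR-FRET between a Eu-labelled anti-phosphotyrosine antibody and streptavidin-allophycocyanin. IC50 values came from fitting signal against inhibitor concentration to a four-parameter logistic equation with variable Hill slope.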
# [5] = method AA1 (90 μM ATP) or AA2 (1000 μM ATP), not stated per value
# [6] = method AA1 (30 μM ATP) or AA2 (1000 μM ATP), not stated per value
# [7] = method AA1 (3 μM ATP) or AA2 (1000 μM ATP), not stated per value
# [8] = compound at a concentration of 500 nM or 1 mM (not specified), cells shown as percentage
# [9] = compound at 500 nM or 1 mM, 90 μM ATP
"IC50 [1, 5] [nM]","IC50 [2, 6] [nM]","IC50 [3, 7] [nM]",IC50 (TYK2) [nM],IC50 ([1]; Table B1) [nM],IC50 ([2]; Table B1) [nM],IC50 ([3]; Table B1) [nM],IC50 (TYK2; Table B1) [nM],"ALK % of inhibition at a concentration of 500 nM or 1 mM [4, 9] [%]",SMILES,further results
51,52,20,80,,,,,,"CC(C)S(=O)(=O)c1ccc2cc1Nc1nc(ncc1Cl)Nc1cccc(c1)CC2 [Example A8, 6-Chloro-10-(isopropylsulfonyl)-2,4,8,22-tetraazatetracyclo[14.3.1.1(3,7).1(9,13)]docosa-1(20),3(22),4,6,9(21),10,12,16,18-nonaene trifluoroacetate]",IC50 ([4]; 90 μM ATP): 80 nM
,,,,4.7,9.9,51,20,,"O=C(NCCN1CCNCC1)Nc1ccc2cc1CCc1cccc(c1)Nc1ncc(Cl)c(n1)N2 [Example B260, N-[6-Chloro-2,4,8,22-tetraazatetracyclo[14.3.1.1(3,7).1(9,13)]docosa-1(20),3(22),4,6,9(21),10,12,16,18-nonaen-12-yl]-N′-(2-piperazin-1-ylethyl)urea trihydrochloride]","ALK % of inhibition at a concentration of 500 nM or 1 mM [4, 8]: 26%"
20,100,> 200,> 200,,,,,28,"O=C(CC1CCN(C(=O)c2ccc(F)cc2F)CC1)Nc1ccc2cc1CCc1cccc(c1)Nc1ncc(Cl)c(n1)N2 [Example A204, N-[6-Chloro-2,4,8,22-tetraazatetracyclo[14.3.1.1(3,7).1(9,13)]docosa-1(20),3(22),4,6,9(21),10,12,16,18-nonaen-12-yl]-2-[1-(2,4-difluorobenzoyl)piperidin-4-yl]acetamide trifluoroacetate]",
,,,,2.6,3.4,43,12,,"O=C(NCc1ccccc1)Nc1ccc2cc1CCc1cccc(c1)Nc1ncc(Cl)c(n1)N2 [Example B93, N-benzyl-N′-[6-chloro-2,4,8,22-tetraazatetracyclo[14.3.1.1(3,7).1(9,13)]docosa-1(20),3(22),4,6,9(21),10,12,16,18-nonaen-12-yl]urea trifluoroacetate]","IC50 ([4]; Table B1, cells without percent sign): > 1000 nM"
2.4,4.2,> 100,3.8,,,,,47,"O=C(CC1CCN(C(=O)NCc2ccccc2)CC1)Nc1ccc2cc1CCc1cncc(c1)Nc1ncc(Cl)c(n1)N2 [Example A155, N-Benzyl-4-(2-{[6-chloro-2,4,8,18,22-pentaazatetracyclo[14.3.1.1(3,7).1(9,13)]docosa-1(20),3(22),4,6,9(21),10,12,16,18-nonaen-12-yl]amino}-2-oxoethyl)piperidine-1-carboxamide bis(trifluoroacetate)]",
,,,,6.6,16,29,29,,"CC(C)(C)OC(=O)N1CC[C@@H](NCc2ccc3cc2CCc2cccc(c2)Nc2ncc(Cl)c(n2)N3)C1 [Example B219, tert-Butyl (3R)-3-({[6-chloro-2,4,8,22-tetraazatetracyclo[14.3.1.1(3,7).1(9,13)]docosa-1(20),3(22),4,6,9(21),10,12,16,18-nonaen-12-yl]methyl}amino)pyrrolidine-1-carboxylate bis(trifluoroacetate)]","ALK % of inhibition at a concentration of 500 nM or 1 mM [4, 8]: 26%"
4.5,3.3,23,11,,,,,59,"O=C(COc1ccc2cc1CCc1cccc(c1)Nc1ncc(Cl)c(n1)N2)Nc1ccccc1 [Example A18, 2-{[6-Chloro-2,4,8,22-tetraazatetracyclo[14.3.1.1(3,7).1(9,13)]docosa-1(20),3(22),4,6,9(21),10,12,16,18-nonaen-12-yl]oxy}-N-phenylacetamide trifluoroacetate]",
,,,,1.4,5.2,29,8.8,,"CCNC(=O)Nc1ccc2cc1CCc1cccc(c1)Nc1ncc(Cl)c(n1)N2 [Example B115, N-[6-Chloro-2,4,8,22-tetraazatetracyclo[14.3.1.1(3,7).1(9,13)]docosa-1(20), 3(22),4,6,9(21),10,12,16,18-nonaen-12-yl]-N′-ethylurea trifluoroacetate]","ALK % of inhibition at a concentration of 500 nM or 1 mM [4, 8]: 23%"
,,,,,,,,,"O=C(Nc1nccs1)c1cc2cc(c1)OCCSc1cccc(c1)Nc1nc(ncc1Cl)N2 [Example D54, 6-Chloro-N-1,3-thiazol-2-yl-17-oxa-14-thia-2,4,8,24-tetraazatetracyclo[16.3.1.1(3,7).1(9,13)]tetracosa-1(22),3(24),4,6,9(23),10,12,18,20-nonaene-20-carboxamide trifluoroacetate]","IC50 ([1]; Table D1): 18 nM; IC50 ([2]; Table D1): 15 nM; IC50 ([3]; Table D1): 132 nM; IC50 (TYK2; Table D1): 27 nM; IC50 ([4]; Table D1, 90 μM ATP): 1220 nM"
15,24,133,24,,,,,25,"CC(C)NC(=O)N1CCC(CC(=O)Nc2ccc3cc2CCc2cncc(c2)Nc2ncc(Cl)c(n2)N3)CC1 [Example A99, 4-(2-{[6-Chloro-2,4,8,18,22-pentaazatetracyclo[14.3.1.1(3,7).1(9,13)]docosa-1(20),3(22),4,6,9(21),10,12,16,18-nonaen-12-yl]amino}-2-oxoethyl)-N-isopropylpiperidine-1-carboxamide bis(trifluoroacetate)]",
,,,,77,171,46,25,,"Cc1cnc(NC(=O)Nc2ccc3cc2CCc2cccc(c2)Nc2ncc(Cl)c(n2)N3)s1 [Example B248, N-[6-Chloro-2,4,8,22-tetraazatetracyclo[14.3.1.1(3,7).1(9,13)]docosa-1(20),3(22),4,6,9(21),10,12,16,18-nonaen-12-yl]-N′-(5-methyl-1,3-thiazol-2-yl)urea trifluoroacetate]","ALK % of inhibition at a concentration of 500 nM or 1 mM [4, 8]: 32%"
,,,,16,180,> 400,208,,"O=C(Nc1ccc2cc1CCc1cncc(c1)Nc1ncc(Cl)c(n1)N2)N1CCn2c(nnc2C(F)(F)F)C1 [Example B316, N-[6-Chloro-2,4,8,18,22-pentaazatetracyclo[14.3.1.1(3,7).1(9,13)]docosa-1(20),3(22),4,6,9(21),10,12,16,18-nonaen-12-yl]-3-(trifluoromethyl)-5,6-dihydro[1,2,4]triazolo[4,3-a]pyrazine-7(8H)-carboxamide tris(trifluoroacetate)]",ALK % of inhibition at a concentration of 500 nM or 1 mM ([4]; percentage inhibition of the example compound at a concentration of 500 nM or 1 mM (not specified which)): 64%
7.2,3.9,7.3,17,,,,,52,"Cc1cc(C(=O)N2CC[C@@H](C(=O)Nc3ccc4cc3CCc3cccc(c3)Nc3ncc(Cl)c(n3)N4)C2)no1 [Example A122, (3R)—N-[6-Chloro-2,4,8,22-tetraazatetracyclo[14.3.1.1(3,7).1(9,13)]docosa-1(20),3(22),4,6,9(21),10,12,16,18-nonaen-12-yl]-1-[(5-methylisoxazol-3-yl)carbonyl]pyrrolidine-4-carboxamide trifluoroacetate]",
6,2.7,8.5,4.7,,,,,,"Clc1cnc2nc1Nc1cccc(c1)/C=C\c1cccc(c1)N2 [Example A1, (14Z)-6-Chloro-2,4,8,22-tetraazatetracyclo[14.3.1.1(3,7).1(9,13)]docosa-1(20),3(22),4,6,9(21),10,12,14,16,18-decaene trifluoroacetate]",IC50 ([4]; 90 μM ATP): 415 nM
3.5,12,> 100,13,,,,,19,"N#Cc1ccccc1NC(=O)N1CCC(CC(=O)Nc2ccc3cc2CCc2cncc(c2)Nc2ncc(Cl)c(n2)N3)CC1 [Example A141, 4-(2-{[6-Chloro-2,4,8,18,22-pentaazatetracyclo[14.3.1.1(3,7).1(9,13)]docosa-1(20),3(22),4,6,9(21),10,12,16,18-nonaen-12-yl]amino}-2-oxoethyl)-N-(2-cyanophenyl)piperidine-1-carboxamide bis(trifluoroacetate)]",
700,8.7,802,76,,,,,,"Cc1cc(N2CCOCC2)c2cc1Nc1ncc(Cl)c(n1)Nc1cccc(c1)CC2 [Example A6, 6-Chloro-19-methyl-17-morpholin-4-yl-2,4,8,22-tetraazatetracyclo[14.3.1.1(3,7).1(9,13)]docosa-1(20),3(22),4,6,9(21),10,12,16,18-nonaene trifluoroacetate]",IC50 ([4]; 90 μM ATP): 497 nM
